Data published in paper PMC10732325 (ACS catalysis, 2023).

Experiments:
VldE [1] = biological target: VldE (Streptomyces hygroscopicus, UniProt Q15JG1, H182A); assay: X-ray crystal structure; type: binding; conditions: apo crystals soaked with 10 mM GDP-glucose, only GDP found; pH 8.0
VldE [2] = biological target: VldE (Streptomyces hygroscopicus, UniProt Q15JG1, D158N); assay: X-ray crystal structure; type: binding; conditions: apo crystals soaked with 10 mM GDP-glucose, only GDP found; pH 8.5
Sequence of VldE (Streptomyces hygroscopicus, UniProt Q15JG1, D158N) (Q15JG1 whole entry D158N): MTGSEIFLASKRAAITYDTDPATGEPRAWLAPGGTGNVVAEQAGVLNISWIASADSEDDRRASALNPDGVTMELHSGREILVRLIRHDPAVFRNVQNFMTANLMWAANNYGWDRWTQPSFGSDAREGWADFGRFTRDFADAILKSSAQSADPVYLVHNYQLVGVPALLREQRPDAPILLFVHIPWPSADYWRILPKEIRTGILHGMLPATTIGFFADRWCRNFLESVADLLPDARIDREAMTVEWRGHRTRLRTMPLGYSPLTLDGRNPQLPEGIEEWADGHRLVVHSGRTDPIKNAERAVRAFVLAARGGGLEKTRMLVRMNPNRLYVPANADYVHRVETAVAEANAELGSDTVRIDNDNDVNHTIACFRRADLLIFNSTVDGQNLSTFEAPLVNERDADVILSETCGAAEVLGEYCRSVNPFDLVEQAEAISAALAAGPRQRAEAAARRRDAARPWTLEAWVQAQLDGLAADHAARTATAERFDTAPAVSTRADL

Sequence of VldE (Streptomyces hygroscopicus, UniProt Q15JG1, H182A) (Q15JG1 whole entry H182A): as the sequence (Q15JG1 whole entry D158N) above, with N158D, H182A counted along it

Nc1nc2c(ncn2[C@@H]2O[C@H](COP(=O)(O)OP(=O)(O)O)[C@@H](O)[C@H]2O)c(=O)[nH]1 [GDP]
X-ray crystal structure (VldE [1]): only the crystal structures of the two variants in complex with GDP were obtained
X-ray crystal structure (VldE [2]): only the crystal structures of the two variants in complex with GDP were obtained
